Laboratory results published in ChEMBL document CHEMBL6071187, “Design, Synthesis, and Biological Evaluation of Selective TBL1X Degraders” (ACS Med Chem Lett, 2024).

How the values were obtained:
[1] = target: T1, Protein cereblon/F-box-like/WD repeat-containing protein TBL1X (Homo sapiens) (UniProt Q96SW2+O60907); assay: PROTAC activity at CRBN/TBL1X in human Ri-1 cells assessed as […] TBL1X level at 1 uM incubated for 6 hrs by Western blotting analysis (reference value: 1); assay type: cell-based
[2] = system: Pfeiffer; assay: Cytotoxicity against human Pfeiffer cells assessed as reduction in cell viability incubated for 72 hrs by MTS assay; assay type: functional, cell-based
[3] = target: T1, Protein cereblon/F-box-like/WD repeat-containing protein TBL1X (Homo sapiens); assay: PROTAC activity at CRBN/TBL1X in human Ri-1 cells assessed as […] TBL1X level at 5 uM incubated for 6 hrs by Western blotting analysis (reference value: 1); assay type: cell-based
[4] = system: Granta-519; assay: Cytotoxicity against human Granta-519 cells assessed as reduction in cell viability incubated for 72 hrs by MTS assay; assay type: functional, cell-based; conditions: Granta-519, 72 h
[5] = target: T1, Protein cereblon/F-box-like/WD repeat-containing protein TBL1X (Homo sapiens); assay: PROTAC activity at CRBN/TBL1X in human Ri-1 cells assessed as TBL1X level relative to control at 0.008 uM incubated for 6 hrs by Western blotting analysis (reference value: 1); assay type: cell-based
[6] = target: T1, Protein cereblon/F-box-like/WD repeat-containing protein TBL1X (Homo sapiens); assay: PROTAC activity at CRBN/TBL1X in human Ri-1 cells assessed as […] TBL1X level at 0.04 uM incubated for 6 hrs by Western blotting analysis (reference value: 1); assay type: cell-based
[7] = target: T1, Protein cereblon/F-box-like/WD repeat-containing protein TBL1X (Homo sapiens); assay: PROTAC activity at CRBN/TBL1X in human Ri-1 cells assessed as […] TBL1X level at 0.2 uM incubated for 6 hrs by Western blotting analysis (reference value: 1); assay type: cell-based
[8] = Cytotoxicity against human Ri-1 cells assessed as reduction in cell viability incubated for 72 hrs by MTS assay; assay type: functional, cell-based; conditions: Ri-1, 72 h
[9] = target: T1, Protein cereblon/F-box-like/WD repeat-containing protein TBL1X (Homo sapiens); assay: PROTAC activity at CRBN/TBL1X in human Ri-1 cells assessed as decrease in TBL1X level incubated for 6 hrs by Western blotting analysis; assay type: cell-based; conditions: dose 0.008-5 µM
[10] = target: T1, Protein cereblon/F-box-like/WD repeat-containing protein TBL1X (Homo sapiens); assay: PROTAC activity at CRBN/TBL1X in human Ri-1 cells assessed as […] TBL1X level at 0.2 uM incubated for 6 hrs in presence of MG-132 by Western blotting analysis (reference value: 1); assay type: cell-based
[11] = target: T1, Protein cereblon/F-box-like/WD repeat-containing protein TBL1X (Homo sapiens); assay: PROTAC activity at CRBN/TBL1X in human Ri-1 cells assessed as […] TBL1X level at 0.2 uM incubated for 6 hrs in presence of tega-vivint by Western blotting analysis (reference value: 1); assay type: cell-based
[12] = target: T1, Protein cereblon/F-box-like/WD repeat-containing protein TBL1X (Homo sapiens); assay: PROTAC activity at CRBN/TBL1X in human Ri-1 cells assessed as […] TBL1X level at 0.2 uM incubated for 6 hrs in presence of pomalidomide by Western blotting analysis (reference value: 1); assay type: cell-based

T1 sequence (O60907 whole entry, looked up): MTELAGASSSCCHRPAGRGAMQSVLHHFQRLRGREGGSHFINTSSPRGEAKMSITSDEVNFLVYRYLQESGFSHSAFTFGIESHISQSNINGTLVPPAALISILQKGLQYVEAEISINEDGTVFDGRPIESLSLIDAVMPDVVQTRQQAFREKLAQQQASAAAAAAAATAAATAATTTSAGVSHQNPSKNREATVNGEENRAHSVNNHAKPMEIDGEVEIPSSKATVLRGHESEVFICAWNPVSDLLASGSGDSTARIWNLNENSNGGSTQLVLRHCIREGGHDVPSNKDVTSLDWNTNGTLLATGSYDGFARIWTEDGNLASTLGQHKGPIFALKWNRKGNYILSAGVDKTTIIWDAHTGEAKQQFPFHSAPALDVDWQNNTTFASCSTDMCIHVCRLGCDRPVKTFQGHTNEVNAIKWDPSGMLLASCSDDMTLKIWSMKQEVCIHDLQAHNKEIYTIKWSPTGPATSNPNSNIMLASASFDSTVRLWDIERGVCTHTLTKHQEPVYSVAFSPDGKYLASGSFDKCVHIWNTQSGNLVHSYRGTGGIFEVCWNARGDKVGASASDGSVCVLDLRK
T1 sequence (Q96SW2 whole entry, looked up): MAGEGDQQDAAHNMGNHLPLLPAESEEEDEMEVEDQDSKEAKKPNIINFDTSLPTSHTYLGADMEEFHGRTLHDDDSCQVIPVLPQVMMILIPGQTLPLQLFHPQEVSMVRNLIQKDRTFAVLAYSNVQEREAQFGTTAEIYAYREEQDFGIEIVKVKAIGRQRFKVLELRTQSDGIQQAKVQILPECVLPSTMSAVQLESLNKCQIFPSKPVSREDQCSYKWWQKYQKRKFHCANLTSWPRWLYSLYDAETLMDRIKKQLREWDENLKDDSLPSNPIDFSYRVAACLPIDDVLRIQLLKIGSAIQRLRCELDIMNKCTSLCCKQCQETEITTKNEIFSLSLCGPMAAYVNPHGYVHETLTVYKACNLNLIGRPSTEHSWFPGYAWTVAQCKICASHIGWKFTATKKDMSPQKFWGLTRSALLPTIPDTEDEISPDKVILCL

| SMILES | fold change (FC) [1] | IC50 [2] | fold change (FC) [3] | IC50 [4] | fold change (FC) [5] | fold change (FC) [6] | fold change (FC) [7] | IC50 [8] | Activity [9] | fold change (FC) [10] | fold change (FC) [11] | fold change (FC) [12] |
| --- | --- | --- | --- | --- | --- | --- | --- | --- | --- | --- | --- | --- |
| CC1CC(C)CN(S(=O)(=O)c2ccc3c(c2)/C(=N/O)c2cc(S(=O)(=O)N4CCN(C(=O)CCNc5cccc6c5C(=O)N(C5CCC(=O)NC5=O)C6=O)CC4)ccc2/C3=N\O)C1 (configuration not stated) | 1.23 | 564 nM | 1.34 | 399 nM | 1 | 1.3 | 1.28 | 797 nM | – | – | – | – |
| CC1CC(C)CN(S(=O)(=O)c2ccc3c(c2)/C(=N\O)c2cc(S(=O)(=O)N4CCN(C(=O)CCOCCOCCNc5cccc6c5C(=O)N(C5CCC(=O)NC5=O)C6=O)CC4)ccc2/C3=N\O)C1 (configuration not stated) | 1.06 | > 20000 nM | 0.97 | > 20000 nM | 1.07 | 0.99 | 0.94 | > 20000 nM | – | – | – | – |
| CC1CC(C)CN(S(=O)(=O)c2ccc3c(c2)/C(=N/O)c2cc(S(=O)(=O)N4CCN(C(=O)CCCCCCCCCCNc5cccc6c5C(=O)N(C5CCC(=O)NC5=O)C6=O)CC4)ccc2/C3=N\O)C1 (configuration not stated) | 0.92 | 2500 nM | 1.08 | 1160 nM | 0.98 | 1.04 | 0.99 | 1160 nM | – | – | – | – |
| CC1CC(C)CN(S(=O)(=O)c2ccc3c(c2)C(=NO)c2cc(S(=O)(=O)N4CC(C)CC(C)C4)ccc2C3=NOCCCNC(=O)CCOCCOCCNc2cccc3c2C(=O)N(C2CCC(=O)NC2=O)C3=O)C1 (configuration not stated) | 0.64 | 1880 nM | 1.03 | > 20000 nM | 0.37 | 0.35 | 0.63 | > 20000 nM | – | – | – | – |
| CC1CC(C)CN(S(=O)(=O)c2ccc3c(c2)C(=NO)c2cc(S(=O)(=O)N4CC(C)CC(C)C4)ccc2C3=NOCCCNC(=O)CCCCCCNc2cccc3c2C(=O)N(C2CCC(=O)NC2=O)C3=O)C1 (configuration not stated) | 0.74 | 355 nM | 0.44 | 530 nM | 0.8 | 0.74 | 0.61 | 929 nM | Dose-Dependent Effect | – | – | – |
| CC1CC(C)CN(S(=O)(=O)c2ccc3c(c2)C(=NO)c2cc(S(=O)(=O)N4CC(C)CC(C)C4)ccc2C3=NOCCCNC(=O)CCCCNc2cccc3c2C(=O)N(C2CCC(=O)NC2=O)C3=O)C1 (configuration not stated) | 0.61 | 398 nM | 1.46 | 523 nM | 0.4 | 0.27 | 0.53 | 795 nM | Dose-Dependent Effect | 0.92 | 0.87 | 0.82 |
| CC1CC(C)CN(S(=O)(=O)c2ccc3c(c2)/C(=N/O)c2cc(S(=O)(=O)N4CCN(C(=O)CCCCCCNc5cccc6c5C(=O)N(C5CCC(=O)NC5=O)C6=O)CC4)ccc2/C3=N\O)C1 (configuration not stated) | 1.36 | 343 nM | 1.51 | 439 nM | 0.91 | 1.03 | 1.16 | 605 nM | – | – | – | – |
| CC1CC(C)CN(S(=O)(=O)c2ccc3c(c2)/C(=N\O)c2cc(S(=O)(=O)N4CCN(C(=O)CCOCCOCCOCCNc5cccc6c5C(=O)N(C5CCC(=O)NC5=O)C6=O)CC4)ccc2/C3=N\O)C1 (configuration not stated) | 0.79 | > 20000 nM | 0.97 | > 20000 nM | 0.9 | 1.02 | 0.92 | > 20000 nM | – | – | – | – |
| CC1CC(C)CN(S(=O)(=O)c2ccc3c(c2)C(=NO)c2cc(S(=O)(=O)N4CC(C)CC(C)C4)ccc2C3=NOCCCNC(=O)CCCCCCCCCCNc2cccc3c2C(=O)N(C2CCC(=O)NC2=O)C3=O)C1 (configuration not stated) | 0.18 | > 20000 nM | 0.43 | > 20000 nM | 0.64 | 0.43 | 0.44 | > 20000 nM | Dose-Dependent Effect | – | – | – |
| CC1CC(C)CN(S(=O)(=O)c2ccc3c(c2)/C(=N/O)c2cc(S(=O)(=O)N4CCN(C(=O)CCCCNc5cccc6c5C(=O)N(C5CCC(=O)NC5=O)C6=O)CC4)ccc2/C3=N\O)C1 (configuration not stated) | 0.91 | 647 nM | 0.6 | 496 nM | 0.9 | 0.94 | 1.02 | 560 nM | – | – | – | – |
| CC1CC(C)CN(S(=O)(=O)c2ccc3c(c2)C(=NO)c2cc(S(=O)(=O)N4CC(C)CC(C)C4)ccc2C3=NOCCCNC(=O)CCOCCNc2cccc3c2C(=O)N(C2CCC(=O)NC2=O)C3=O)C1 (configuration not stated) | 0.43 | 554 nM | 0.48 | 1040 nM | 0.4 | 0.47 | 0.51 | 1350 nM | – | – | – | – |
| CC1CC(C)CN(S(=O)(=O)c2ccc3c(c2)C(=NO)c2cc(S(=O)(=O)N4CC(C)CC(C)C4)ccc2C3=NOCCCNC(=O)CCNc2cccc3c2C(=O)N(C2CCC(=O)NC2=O)C3=O)C1 (configuration not stated) | 0.5 | 189 nM | 0.54 | 323 nM | 0.97 | 0.56 | 0.41 | 651 nM | Dose-Dependent Effect | – | – | – |
| C[C@@H]1C[C@H](C)CN(S(=O)(=O)c2ccc3c(c2)C(=NO)c2cc(S(=O)(=O)N4C[C@H](C)C[C@H](C)C4)ccc2C3=NO)C1 | – | 175 nM | – | 94.1 nM | – | – | – | 86 nM | – | – | – | – |
| CC1CC(C)CN(S(=O)(=O)c2ccc3c(c2)/C(=N/O)c2cc(S(=O)(=O)N4CCN(C(=O)CCOCCNc5cccc6c5C(=O)N(C5CCC(=O)NC5=O)C6=O)CC4)ccc2/C3=N\O)C1 (configuration not stated) | 1.15 | > 20000 nM | 0.79 | > 20000 nM | 0.91 | 1.11 | 1.59 | > 20000 nM | – | – | – | – |
| CC1CC(C)CN(S(=O)(=O)c2ccc3c(c2)C(=NO)c2cc(S(=O)(=O)N4CC(C)CC(C)C4)ccc2C3=NOCCCNC(=O)CCOCCOCCOCCNc2cccc3c2C(=O)N(C2CCC(=O)NC2=O)C3=O)C1 (configuration not stated) | 0.59 | > 20000 nM | 0.58 | > 20000 nM | 0.6 | 0.49 | 0.46 | > 20000 nM | – | – | – | – |
